From ChEMBL document CHEMBL4011659, “Combining Elements from Two Antagonists of Formyl Peptide Receptor 2 Generates More Potent Peptidomimetic Antagonists” (J Med Chem, 2017) come the findings set out here.

pIC50: −log10 of the molar value. Active and inactive are the calls of the source. The calls are words filed in the database; no cut-off is given here. Peptide text beside a SMILES is read from it. * marks the point of attachment. RhodamineB = CCN(CC)c1ccc2c(-c3ccccc3C(=O)*)c3ccc(=[N+](CC)CC)cc-3oc2c1

Assay [1] addresses T1, fMet-Leu-Phe receptor (Homo sapiens) (UniProt P21462).
T1 sequence (whole entry): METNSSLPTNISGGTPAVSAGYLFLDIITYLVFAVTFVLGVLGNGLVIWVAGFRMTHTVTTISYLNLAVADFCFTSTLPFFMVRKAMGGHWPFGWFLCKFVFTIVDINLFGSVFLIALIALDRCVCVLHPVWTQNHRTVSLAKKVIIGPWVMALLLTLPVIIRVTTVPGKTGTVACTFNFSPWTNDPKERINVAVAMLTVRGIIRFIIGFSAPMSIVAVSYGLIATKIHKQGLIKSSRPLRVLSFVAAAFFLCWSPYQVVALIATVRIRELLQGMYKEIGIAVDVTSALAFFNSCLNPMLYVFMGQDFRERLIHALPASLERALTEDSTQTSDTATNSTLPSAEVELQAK
Briefly: Antagonist activity at FPR1 in human peripheral blood polymorphonuclear neutrophils assessed as inhibition of fMLF-induced ROS production at <500 nM preincubated for 5 mins followed fMLF stimulation by isoluminol/HRP-based chemiluminescence assay.

Assay [2] concerns the target T2, N-formyl peptide receptor 2 (Homo sapiens, UniProt P25090).
T2 sequence (P25090 whole entry): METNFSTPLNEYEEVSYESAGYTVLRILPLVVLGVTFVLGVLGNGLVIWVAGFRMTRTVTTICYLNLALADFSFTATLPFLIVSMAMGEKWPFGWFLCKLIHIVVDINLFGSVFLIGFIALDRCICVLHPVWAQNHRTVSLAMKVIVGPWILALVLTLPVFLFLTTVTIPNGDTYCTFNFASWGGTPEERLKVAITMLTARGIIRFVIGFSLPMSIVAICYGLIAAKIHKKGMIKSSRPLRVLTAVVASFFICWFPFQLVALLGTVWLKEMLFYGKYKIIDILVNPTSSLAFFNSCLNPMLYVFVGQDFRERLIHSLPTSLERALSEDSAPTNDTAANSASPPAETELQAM
Description: Antagonist activity at FPR2 in human peripheral blood polymorphonuclear neutrophils assessed as inhibition of WKYMVM-peptide induced ROS production preincubated for 5 mins followed WKYMVM-peptide stimulation by isoluminol/HRP-based chemiluminescence assay.

The target of assay [3] is T3, N-formyl peptide receptor 2 (Homo sapiens) (UniProt P25090).
T3 sequence (whole entry): T2 sequence (P25090 whole entry)
Description: Antagonist activity at FPR2 in human peripheral blood polymorphonuclear neutrophils assessed as inhibition of WKYMVM-peptide induced ROS production at <500 nM preincubated for 5 mins followed WKYMVM-peptide stimulation by isoluminol/HRP-based chemiluminescence assay.

Assay [4] concerns the target T1, fMet-Leu-Phe receptor (Homo sapiens). Briefly: Antagonist activity at FPR1 in human peripheral blood polymorphonuclear neutrophils assessed as inhibition of fMLF-induced ROS production at >= 1 uM preincubated for 5 mins followed by fMLF stimulation by isoluminol/HRP-based chemiluminescence assay.

For `CCN(CC)c1ccc2c(-c3ccccc3C(=O)N[C@@H](CCCCN)C(=O)N(CCC(=O)N[C@@H](CCCCN)C(=O)N(CCC(=O)N[C@@H](CCCCN)C(=O)N(CCC(=O)N[C@@H](CCCCN)C(=O)N(CCC(=O)N[C@@H](CCCCN)C(=O)N(CCC(=O)N[C@@H](CCCCN)C(=O)N(CCC(N)=O)[C@H](C)c3ccccc3)[C@H](C)c3ccccc3)[C@H](C)c3ccccc3)[C@H](C)c3ccccc3)[C@H](C)c3ccccc3)[C@H](C)c3ccccc3)c3ccc(=[N+](CC)CC)cc-3oc2c1`, in assay [1], the inhibition entry is “inactive”. Also, in assay [2], the pIC50 is 7.36.

As to `CCN(CC)c1ccc2c(-c3ccccc3C(=O)N[C@@H](CCCCN)C(=O)N(CCC(N)=O)Cc3ccccc3)c3ccc(=[N+](CC)CC)cc-3oc2c1`, in assay [1], the inhibition entry is “inactive”. Moreover, the pIC50 in assay [2] is 6.12.

`CCN(CC)c1ccc2c(-c3ccccc3C(=O)N[C@@H](CCCCN)C(=O)N(CCC(=O)N[C@@H](CCCCN)C(=O)N(CCC(=O)N[C@@H](CCCCN)C(=O)N(CCC(=O)N[C@@H](CCCCN)C(=O)N(CCC(=O)N[C@@H](CCCCN)C(=O)N(CCC(=O)N[C@@H](CCCCN)C(=O)N(CCC(=O)N[C@@H](CCCCN)C(=O)N(CCC(=O)N[C@@H](CCCCN)C(=O)N(CCC(N)=O)Cc3ccccc3)Cc3ccccc3)Cc3ccccc3)Cc3ccccc3)Cc3ccccc3)Cc3ccccc3)Cc3ccccc3)Cc3ccccc3)c3ccc(=[N+](CC)CC)cc-3oc2c1`: the inhibition result in assay [1] was “inactive”. Further, the pIC50 in assay [2] is 7.39.

Turning to `CCN(CC)c1ccc2c(-c3ccccc3C(=O)N[C@H](CCC(N)=O)C(=O)N[C@H](CCCNC(=N)N)C(=O)N[C@H](CC(C)C)C(=O)N[C@H](Cc3ccccc3)C(=O)N[C@H](CCC(N)=O)C(=O)N[C@@H](C(=O)N[C@H](CCCCN)C(=O)NCC(=O)N[C@H](CCCNC(=N)N)C(=O)N[C@H](CCCNC(=N)N)C(N)=O)C(C)C)c3ccc(=[N+](CC)CC)cc-3oc2c1`, the inhibition result in assay [1] and in assay [3] was “inactive” throughout.

As for `CCCCCCCCCCCCCCCC(=O)N[C@@H](CCC(N)=O)C(=O)N[C@@H](CCCNC(=N)N)C(=O)N[C@@H](CC(C)C)C(=O)N[C@@H](Cc1ccccc1)C(=O)N[C@@H](CCC(N)=O)C(=O)NC(C(=O)N[C@@H](CCCCN)C(=O)NCC(=O)N[C@@H](CCCNC(=N)N)C(=O)N[C@@H](CCCNC(=N)N)C(N)=O)C(C)C` (single isomer, unassigned), the inhibition result in assay [4] was “Active”. Besides, in assay [2], the pIC50 is 6.05.

As for `CCN(CC)c1ccc2c(-c3ccccc3C(=O)N[C@@H](CCCCN)C(=O)N(CCC(=O)N[C@@H](CCCCN)C(=O)N(CCC(=O)N[C@@H](CCCCN)C(=O)N(CCC(=O)N[C@@H](CCCCN)C(=O)N(CCC(=O)N[C@@H](CCCCN)C(=O)N(CCC(=O)N[C@@H](CCCCN)C(=O)N(CCC(N)=O)Cc3cc(F)c(F)c(F)c3)Cc3cc(F)c(F)c(F)c3)Cc3cc(F)c(F)c(F)c3)Cc3cc(F)c(F)c(F)c3)Cc3cc(F)c(F)c(F)c3)Cc3cc(F)c(F)c(F)c3)c3ccc(=[N+](CC)CC)cc-3oc2c1`, in assay [1], the inhibition entry is “inactive”. In assay [2], the pIC50 was 7.28.

For the compound `CCN(CC)c1ccc2c(-c3ccccc3C(=O)N[C@@H](CCCCN)C(=O)N(CCC(=O)N[C@@H](CCCCN)C(=O)N(CCC(=O)N[C@@H](CCCCN)C(=O)N(CCC(=O)N[C@@H](CCCCN)C(=O)N(CCC(=O)N[C@@H](CCCCN)C(=O)N(CCC(N)=O)Cc3ccccc3)Cc3ccccc3)Cc3ccccc3)Cc3ccccc3)Cc3ccccc3)c3ccc(=[N+](CC)CC)cc-3oc2c1`, in assay [1], the inhibition result was “inactive”. In addition, the pIC50 in assay [2] is 7.74.

As for `CCN(CC)c1ccc2c(-c3ccccc3C(=O)N[C@@H](CCCCN)C(=O)N(CCC(=O)N[C@@H](CCCCN)C(=O)N(CCC(N)=O)Cc3ccccc3)Cc3ccccc3)c3ccc(=[N+](CC)CC)cc-3oc2c1`, the inhibition entry in assay [1] is “inactive”. The negative logarithm of the IC50 (pIC50) in assay [2] is 6.56.

`CCN(CC)c1ccc2c(-c3ccccc3C(=O)N[C@@H](CCCCN)C(=O)N(CCC(=O)N[C@@H](CCCCN)C(=O)N(CCC(=O)N[C@@H](CCCCN)C(=O)N(CCC(=O)N[C@@H](CCCCN)C(=O)N(CCC(N)=O)Cc3ccccc3)Cc3ccccc3)Cc3ccccc3)Cc3ccccc3)c3ccc(=[N+](CC)CC)cc-3oc2c1`: the inhibition entry in assay [1] is “inactive”. Further, in assay [2], the pIC50 was 7.89.

As for `CCCCCCCCCCCCCCCC(=O)N[C@H](CCC(N)=O)C(=O)N[C@H](CCCNC(=N)N)C(=O)N[C@H](CC(C)C)C(=O)N[C@H](Cc1ccccc1)C(=O)N[C@H](CCC(N)=O)C(=O)N[C@@H](C(=O)N[C@H](CCCCN)C(=O)NCC(=O)N[C@H](CCCNC(=N)N)C(=O)N[C@H](CCCNC(=N)N)C(N)=O)C(C)C`, in assay [4], the inhibition entry is “Active”. Moreover, the pIC50 in assay [2] was 5.95.

In the case of `CCN(CC)c1ccc2c(-c3ccccc3C(=O)N[C@@H](CCCCN)C(=O)N(CCC(=O)N[C@@H](CCCCN)C(=O)N(CCC(=O)N[C@@H](CCCCN)C(=O)N(CCC(N)=O)Cc3ccccc3)Cc3ccccc3)Cc3ccccc3)c3ccc(=[N+](CC)CC)cc-3oc2c1`, in assay [1], the inhibition result was “inactive”. For the same compound, in assay [2], the pIC50 was 7.55.

`CCN(CC)c1ccc2c(-c3ccccc3C(=O)N[C@@H](CCCCN)C(=O)N(CCC(=O)N[C@@H](CCCCN)C(=O)N(CCC(=O)N[C@@H](CCCCN)C(=O)N(CCC(=O)N[C@@H](CCCCN)C(=O)N(CCC(=O)N[C@@H](CCCCN)C(=O)N(CCC(=O)N[C@@H](CCCCN)C(=O)N(CCC(N)=O)Cc3ccc(C)cc3)Cc3ccc(C)cc3)Cc3ccc(C)cc3)Cc3ccc(C)cc3)Cc3ccc(C)cc3)Cc3ccc(C)cc3)c3ccc(=[N+](CC)CC)cc-3oc2c1`: in assay [1], the inhibition entry is “inactive”. Besides, in assay [2], the pIC50 was 7.62.

Take `CCN(CC)c1ccc2c(-c3ccccc3C(=O)N[C@@H](CCCCN)C(=O)N[C@@H](Cc3ccccc3)C(=O)N[C@@H](CCCCN)C(=O)N[C@@H](Cc3ccccc3)C(=O)N[C@@H](CCCCN)C(=O)N[C@@H](Cc3ccccc3)C(=O)N[C@@H](CCCCN)C(=O)N[C@@H](Cc3ccccc3)C(=O)N[C@@H](CCCCN)C(=O)N[C@@H](Cc3ccccc3)C(=O)N[C@@H](CCCCN)C(=O)N[C@@H](Cc3ccccc3)C(N)=O)c3ccc(=[N+](CC)CC)cc-3oc2c1` (RhodamineB-KFKFKFKFKFKF-NH2): the inhibition entry in assay [1] and in assay [3] was “inactive” each time.

`CCN(CC)c1ccc2c(-c3ccccc3C(=O)N[C@@H](CCCCN)C(=O)N(CCC(=O)N[C@@H](CCCCN)C(=O)N(CCC(=O)N[C@@H](CCCCN)C(=O)N(CCC(=O)N[C@@H](CCCCN)C(=O)N(CCC(=O)N[C@@H](CCCCN)C(=O)N(CCC(=O)N[C@@H](CCCCN)C(=O)N(CCC(N)=O)[C@@H](C)c3ccccc3)[C@@H](C)c3ccccc3)[C@@H](C)c3ccccc3)[C@@H](C)c3ccccc3)[C@@H](C)c3ccccc3)[C@@H](C)c3ccccc3)c3ccc(=[N+](CC)CC)cc-3oc2c1`: the inhibition entry in assay [1] is “inactive”. Also, in assay [2], the negative-log IC50 (pIC50) is 7.47.

On to `CCN(CC)c1ccc2c(-c3ccccc3C(=O)N[C@@H](CCCCN)C(=O)N(CCC(=O)N[C@@H](CCCCN)C(=O)N(CCC(=O)N[C@@H](CCCCN)C(=O)N(CCC(=O)N[C@@H](CCCCN)C(=O)N(CCC(=O)N[C@@H](CCCCN)C(=O)N(CCC(=O)N[C@@H](CCCCN)C(=O)N(CCC(=O)N[C@@H](CCCCN)C(=O)N(CCC(N)=O)Cc3ccccc3)Cc3ccccc3)Cc3ccccc3)Cc3ccccc3)Cc3ccccc3)Cc3ccccc3)Cc3ccccc3)c3ccc(=[N+](CC)CC)cc-3oc2c1`, for which the inhibition entry in assay [1] was “inactive”. Also, in assay [2], the pIC50 was 7.46.
